Experimental data from US10508120B2, “TYK2 inhibitors and uses thereof” (Nimbus Lakshmi, Inc., priority 2017, dated 2019).
Where two headings read alike, the source gives them in different places.

What was measured:
JAK2 kinase domain (JH1) = JAK2 kinase domain (JH1) (Homo sapiens (Human), UniProt O60674); assay: JAK2 Radioactive Kinase Assay; type: biochemical; conditions: for inhibition at 10 µM: read-out: JAK2 JH1% Inhibition @ 10 μM
Procedure: (§1) The Tyk2 and JAK2 radioactive kinase assay measures the percent inhibition at the Tyk2 kinase domain (DH1) and the percent inhibition at the JAK2 kinase domain (JH1). Results of the assay are expressed as percent inhibition at 10 μM.

Tyk2 kinase domain (DH1) = Tyk2 kinase domain (DH1) (Homo sapiens (Human), UniProt P29597); assay: Tyk2 Radioactive Kinase Assay; type: biochemical; conditions: for inhibition at 10 µM: read-out: Tyk2 JH1% Inhibition @ 10 μM
Chain of Tyk2 kinase domain (DH1) (P29597 897-1176): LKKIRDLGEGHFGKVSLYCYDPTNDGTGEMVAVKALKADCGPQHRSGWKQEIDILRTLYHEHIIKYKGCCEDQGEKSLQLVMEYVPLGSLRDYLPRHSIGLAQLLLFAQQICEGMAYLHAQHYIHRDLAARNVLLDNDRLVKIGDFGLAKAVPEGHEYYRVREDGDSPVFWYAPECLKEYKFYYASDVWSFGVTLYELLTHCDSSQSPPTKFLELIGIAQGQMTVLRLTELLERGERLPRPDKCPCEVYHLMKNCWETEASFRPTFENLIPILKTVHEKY
Procedure: as §1

[1] = target: human TYK2 (JH2domain-pseudokinase) (Homo sapiens (Human), UniProt P29597); assay: TYK2 JH2 Domain Binding Assay (KINOMEscan)
Chain of human TYK2 (JH2domain-pseudokinase) (P29597 556-888): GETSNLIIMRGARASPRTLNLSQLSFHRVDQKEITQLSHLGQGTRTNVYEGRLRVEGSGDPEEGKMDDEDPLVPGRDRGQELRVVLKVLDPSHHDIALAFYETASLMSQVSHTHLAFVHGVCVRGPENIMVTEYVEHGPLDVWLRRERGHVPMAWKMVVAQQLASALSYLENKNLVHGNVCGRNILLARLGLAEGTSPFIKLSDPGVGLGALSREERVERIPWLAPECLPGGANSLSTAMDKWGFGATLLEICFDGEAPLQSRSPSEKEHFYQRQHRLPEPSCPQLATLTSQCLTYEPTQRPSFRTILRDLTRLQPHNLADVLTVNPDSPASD
In short: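 Kds, run in duplicate, came from Hill fits (slope fixed at −1) of an 11-point 3-fold dilution series starting at 30,000 nM. Bead-retained TYK2 JH2 (aa G556–D888)–NFkB DBD fusion, DNA-tagged and expressed in HEK293 cells, was read by qPCR after 1 h room-temperature binding in 0.9% DMSO.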

Chain of JAK2 kinase domain (JH1) (O60674 849-1124): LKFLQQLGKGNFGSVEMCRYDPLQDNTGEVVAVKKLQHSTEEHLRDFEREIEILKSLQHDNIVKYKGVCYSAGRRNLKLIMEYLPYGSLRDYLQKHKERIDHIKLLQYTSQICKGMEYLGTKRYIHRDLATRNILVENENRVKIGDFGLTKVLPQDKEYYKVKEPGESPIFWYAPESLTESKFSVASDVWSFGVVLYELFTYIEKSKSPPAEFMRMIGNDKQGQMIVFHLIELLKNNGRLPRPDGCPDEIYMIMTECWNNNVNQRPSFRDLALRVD

| inhibition at 10 µM (JAK2 kinase domain (JH1); compound at 10 μM, ATP 10 μM) [%] | inhibition at 10 µM (Tyk2 kinase domain (DH1); compound at 10 μM, ATP 10 μM) [%] | Kd [1] [nM] | Compound | further results |
| --- | --- | --- | --- | --- |
| < 50 | < 50 | 1 to 10 | CNc1cc(Nc2cccn([C@H]3CCC[C@H]3OC)c2=O)nc2c(C(=O)NC3CC3)cnn12 [I-491] |  |
|  |  | < 0.2 | CNc1cc(Nc2cccn([C@@H]3CCC[C@@H](OC)C3)c2=O)nc2c(C(=O)NC3CC3)cnn12 [I-1026] | inhibition at 10 µM (JAK2 kinase domain (JH1); 10 μM compound, 10 μM ATP): < 50%; inhibition at 10 µM (Tyk2 kinase domain (DH1); 10 μM compound, 10 μM ATP): < 50% |
| < 50 | < 50 | 1 to 10 | CNc1cc(Nc2cccn(CCOC3CC3)c2=O)nc2c(C(=O)N[C@H]3CC[C@@H]3O)cnn12 [I-514, 5-((1-(2-cyclopropoxyethyl)-2-oxo-1,2-dihydropyridin-3-yl)amino)-N-((1 S,2S)-2-hydroxycyclobutyl)-7-(methylamino)pyrazolo[1,5-a]pyrimidine-3-carboxamide] |  |
|  |  | 0.2 to 1 | CNc1cc(Nc2cccn([C@@H]3CCC[C@@H]3O)c2=O)nc2c(C(=O)N[C@H]3CC[C@@H]3OC)cnn12 [I-1100] | inhibition at 10 µM (JAK2 kinase domain (JH1); 10 μM compound, 10 μM ATP): < 50%; inhibition at 10 µM (Tyk2 kinase domain (DH1); 10 μM compound, 10 μM ATP): < 50% |
|  |  | < 0.2 | CNc1cc(Nc2cccn([C@@H]3CCC[C@H](OC)C3)c2=O)nc2c(C(=O)NCC3(CO)CC3)cnn12 [I-929] | inhibition at 10 µM (JAK2 kinase domain (JH1); 10 μM compound, 10 μM ATP): < 50%; inhibition at 10 µM (Tyk2 kinase domain (DH1); 10 μM compound, 10 μM ATP): < 50% |
|  |  | < 0.2 | CNc1cc(Nc2cccn(C3CCCCC3)c2=O)nc2c(C(=O)NCC(C)CO)cnn12 (stereo not drawn) [I-944] | inhibition at 10 µM (JAK2 kinase domain (JH1); 10 μM compound, 10 μM ATP): < 50%; inhibition at 10 µM (Tyk2 kinase domain (DH1); 10 μM compound, 10 μM ATP): < 50% |
| < 50 | < 50 | 0.2 to 1 | CNc1cc(Nc2cccn([C@H]3CCC[C@@H]3OC)c2=O)nc2c(C(=O)NC3CC3)cnn12 [I-403] |  |
| < 50 | < 50 | < 0.2 | CNc1cc(Nc2cccn([C@H]3CC[C@@H](OC)CC3)c2=O)nc2c(C(=O)NC3CC3)cnn12 [I-356] |  |
| < 50 | < 50 | 0.2 to 1 | CNc1cc(Nc2cccn([C@H]3CC[C@@H]3O)c2=O)nc2c(C(=O)NC3CC3)cnn12 [I-801] |  |
|  |  | < 0.2 | CNc1cc(Nc2cccn([C@H]3CC[C@@H]3O)c2=O)nc2c(C(=O)N[C@@H]3C[C@@H]3F)cnn12 [I-998] | JAK2 JH1% Inhibition @ 10 μM (JAK2 kinase domain (JH1); 10 μM compound, 10 μM ATP): A (percent inhibition at 10 μM lower than 50); Tyk2 JH1% Inhibition @ 10 μM (Tyk2 kinase domain (DH1); 10 μM compound, 10 μM ATP): A (percent inhibition at 10 μM lower than 50) |
|  |  | 0.2 to 1 | CNc1cc(Nc2cccn([C@@H]3CCCN(CCF)C3)c2=O)nc2c(C(=O)NC3CC3)cnn12 [I-881] | inhibition at 10 µM (JAK2 kinase domain (JH1); 10 μM compound, 10 μM ATP): < 50%; inhibition at 10 µM (Tyk2 kinase domain (DH1); 10 μM compound, 10 μM ATP): < 50% |
| < 50 | < 50 | < 0.2 | CNc1cc(Nc2cccc([C@@H]3CCCOC3)n2)nc2c(C(=O)NCC(C)(C)CO)cnn12 [I-580] |  |
| < 50 | < 50 | 1 to 10 | CNc1cc(Nc2cccn([C@H]3CCC[C@H]3OC)c2=O)nc2c(C(=O)N[C@@H]3C[C@@H]3F)cnn12 [I-538] |  |
|  |  | 1 to 10 | CNc1cc(Nc2cccn(CCOC3CC3)c2=O)nc2c(C(=O)N[C@@H]3CC[C@@H]3O)cnn12 [I-516] | JAK2 JH1% Inhibition @ 10 μM (JAK2 kinase domain (JH1); compound at 10 μM, ATP 10 μM): A (percent inhibition at 10 μM lower than 50); Tyk2 JH1% Inhibition @ 10 μM (Tyk2 kinase domain (DH1); compound at 10 μM, ATP 10 μM): A (percent inhibition at 10 μM lower than 50) |
| < 50 | < 50 | 0.2 to 1 | CNc1cc(Nc2cccnc2C(C)(F)F)nc2c(C(=O)NC3CCC3)cnn12 [I-299] |  |
| < 50 | < 50 | 0.2 to 1 | CNc1cc(Nc2cccn([C@@H]3CCCOC3)c2=O)nc2c(C(=O)NCC3(CO)CC3)cnn12 [I-700] |  |
| < 50 | < 50 | < 0.2 | CNc1cc(Nc2cccn(C3CCOCC3)c2=O)nc2c(C(=O)N[C@@H]3CC[C@@H]3O)cnn12 [I-556] |  |
| < 50 | < 50 | < 0.2 | CNc1cc(Nc2cccn([C@@H]3CCC[C@H](OC)C3)c2=O)nc2c(C(=O)NC3CC3)cnn12 [I-568] |  |
| < 50 | < 50 | < 0.2 | CNc1cc(Nc2cccn(-c3nc(C)co3)c2=O)nc2c(C(=O)N[C@@H]3CC[C@@H]3O)cnn12 [I-654] |  |
|  |  | 0.2 to 1 | CNc1cc(Nc2cccn([C@@H]3CCC[C@@H](OC)C3)c2=O)nc2c(C(=O)N[C@@H]3C[C@@H]3F)cnn12 [I-1043] | inhibition at 10 µM (JAK2 kinase domain (JH1); 10 μM compound, 10 μM ATP): < 50%; inhibition at 10 µM (Tyk2 kinase domain (DH1); 10 μM compound, 10 μM ATP): < 50% |
|  |  | < 0.2 | CNc1cc(Nc2cccn(-c3cccc(F)c3)c2=O)nc2c(C(=O)N[C@H]3CC[C@@H]3O)cnn12 [I-1024] | inhibition at 10 µM (JAK2 kinase domain (JH1); 10 μM compound, 10 μM ATP): < 50%; inhibition at 10 µM (Tyk2 kinase domain (DH1); 10 μM compound, 10 μM ATP): < 50% |

Continued, compound first:

| Compound | inhibition at 10 µM (JAK2 kinase domain (JH1); compound at 10 μM, ATP 10 μM) [%] | inhibition at 10 µM (Tyk2 kinase domain (DH1); compound at 10 μM, ATP 10 μM) [%] | Kd [1] [nM] | further results |
| --- | --- | --- | --- | --- |
| CNc1cc(Nc2cccc3ocnc23)nc2c(C(=O)NCC3(CO)CC3)cnn12 [I-749] | < 50 | < 50 | < 0.2 |  |
| CNc1cc(Nc2cc(Cl)cn(C3CNC3)c2=O)nc2c(C(N)=O)cnn12 [I-40] | < 50 | < 50 | 0.2 to 1 |  |
| CNc1cc(-c2nn(CCN3CCOCC3)c3ncccc23)nc2c(C(=O)NC3CC3)cnn12 [I-455] | < 50 | < 50 | 1 to 10 |  |
| CNc1cc(Nc2cccc([C@@H]3CCCOC3)n2)nc2c(C(=O)N[C@H]3CC[C@H]3O)cnn12 [I-644] | < 50 | < 50 | < 0.2 |  |
| CNc1cc(Nc2cc(F)cnc2OC(C)C)nc2c(C(=O)NC3CCC3)cnn12 [I-210] | < 50 | < 50 | 0.2 to 1 |  |
| CNc1cc(Nc2cccnc2OC)nc2c(C(=O)N[C@H]3CC[C@H](O)C3)cnn12 [I-487] |  |  | < 0.2 | JAK2 JH1% Inhibition @ 10 μM (JAK2 kinase domain (JH1); compound at 10 μM, ATP 10 μM): A (percent inhibition at 10 μM lower than 50); Tyk2 JH1% Inhibition @ 10 μM (Tyk2 kinase domain (DH1); compound at 10 μM, ATP 10 μM): A (percent inhibition at 10 μM lower than 50) |
| CNc1cc(Nc2cc(C)cn(-c3ccn(C)n3)c2=O)nc2c(C(N)=O)cnn12 [I-26] | < 50 | < 50 | < 0.2 |  |
| CNc1cc(Nc2cccnc2OC2CC2)nc2c(C(=O)N[C@@H]3COC[C@@H]3O)cnn12 [I-546] | < 50 | < 50 | 1 to 10 |  |
| CNc1cc(Nc2cccn(-c3ccc(CCN4CCOCC4)cc3)c2=O)nc2c(C(=O)N[C@H]3C[C@H]3F)cnn12 [I-308] | < 50 | < 50 | < 0.2 |  |
| CNc1cc(Nc2cc(C)cn(-c3cnn(C4CC4)c3C)c2=O)nc2c(C(N)=O)cnn12 [I-114] | < 50 | < 50 | 1 to 10 |  |
| CNc1cc(Nc2cccc([C@H]3CCCOC3)n2)nc2c(C(=O)N[C@@H]3CC[C@@H]3O)cnn12 [I-604] | < 50 | < 50 | < 0.2 |  |
| CNc1cc(-c2nn(CCN3CCCCC3)c3ncccc23)nc2c(C(=O)NC3CC3)cnn12 [I-457] | < 50 | < 50 | 1 to 10 |  |
| CNc1cc(Nc2cccc([C@H]3CCCOC3)n2)nc2c(C(=O)N[C@@H]3COC[C@@H]3O)cnn12 [I-775] |  |  | < 0.2 | JAK2 JH1% Inhibition @ 10 μM (JAK2 kinase domain (JH1); compound at 10 μM, ATP 10 μM): A (percent inhibition at 10 μM lower than 50); Tyk2 JH1% Inhibition @ 10 μM (Tyk2 kinase domain (DH1); compound at 10 μM, ATP 10 μM): A (percent inhibition at 10 μM lower than 50) |
| CNc1cc(Nc2cc(F)cn(-c3nn(C)cc3C)c2=O)nc2c(C(=O)N[C@@H]3C[C@@H]3F)cnn12 [I-416] | < 50 | < 50 | > 10 |  |
| CNc1cc(Nc2cccc([C@H]3CCCOC3)n2)nc2c(C(=O)N[C@H]3COC[C@H]3O)cnn12 [I-774] |  |  | 1 to 10 | JAK2 JH1% Inhibition @ 10 μM (JAK2 kinase domain (JH1); compound at 10 μM, ATP 10 μM): A (percent inhibition at 10 μM lower than 50); Tyk2 JH1% Inhibition @ 10 μM (Tyk2 kinase domain (DH1); compound at 10 μM, ATP 10 μM): A (percent inhibition at 10 μM lower than 50) |
| CNc1cc(Nc2cccnc2OC2CC2)nc2c(C(=O)NC(C)(C)C#N)cnn12 [I-492, N-(2-cyanopropan-2-yl)-5-((2-cyclopropoxypyridin-3-yl)amino)-7-(methylamino)pyrazolo[1,5-a]pyrimidine-3-carboxamide] | < 50 | < 50 | < 0.2 |  |
| [2H]C([2H])([2H])Oc1ncccc1Nc1cc(NC)n2ncc(C(=O)N[C@@H]3CC[C@@H]3O)c2n1 (stereo in doubt) [I-400, N-((1R,2S)-2-hydroxycyclobutyl)-5-((2-(methoxy-d3)pyridin-3-yl)amino)-7-(methylamino) pyrazolo[1,5-a]pyrimidine-3-carboxamide] | < 50 | < 50 | 0.2 to 1 |  |
| CNc1cc(Nc2cccnc2O[C@H]2CC[C@H](O)CC2)nc2c(C(=O)NC3CCC3)cnn12 [I-232] | < 50 | < 50 | < 0.2 |  |
| CNc1cc(-c2cn(CCN3CCOCC3)c3ncccc23)nc2c(C(=O)NCC3(CO)CC3)cnn12 [I-807, N-((1-(hydroxymethyl)cyclopropyl)methyl)-7-(methylamino)-5-(1-(2-morpholinoethyl)-1H-pyrrolo[2,3-b]pyridin-3-yl)pyrazolo[1,5-a]pyrimidine-3-carboxamide] | < 50 | < 50 | 0.2 to 1 |  |
| CNc1cc(Nc2cccc([C@H]3CCCOC3)n2)nc2c(C(=O)N[C@@H]3COC[C@@H]3O)cnn12 [I-634] | < 50 | < 50 | < 0.2 |  |
| CNc1cc(Nc2cccnc2O[C@H]2CC[C@H](OC)CC2)nc2c(C(=O)N[C@H]3C[C@H]3F)cnn12 [I-249] | < 50 | < 50 | < 0.2 |  |
